The source of these data is patent US8071640B2, “Urea oligomers, their preparation process and pharmaceutical compositions containing them” (Centre National de la Recherche Scientifique, priority 2001, dated 2011).

Read-outs that look alike come from different tables or passages of the source.

In data set [1] the test system is erythrocytes. Description: Hemolysis test. Type of data set: cell-based, monkey (macaque). Conditions: 100 μg per ml of suspension (positive control); macaque erythrocytes, one hour at 37° C. As for the experimental part:
A compound acting on the membranes of bacteria can potentially disturb the membranes of mammalian cells. The red blood cells or erythrocytes serves as a model of eukaryotic cells where the degree of membrane permeation is easily evaluated by measuring the quantity of hemoglobin released through the pores of the embrittled membranes and the concentration of which is directly proportional to the optical density at 450 nm.
The erythrocytes are prepared from freshly sampled monkey blood (macaque). The heparinized blood is centrifuged and washed three times with cold PBS and resuspended at 10% (v/v) in PBS. 10 μl of an aqueous solution of the products to be tested are added to 90 μl of suspension of red blood cells. The erythrocytes are incubated for one hour at 37° C. The suspension is centrifuged in order to recover the supernatant which is more or less red depending on the degree of hemolysis. The concentration of hemoglobin released in the supernatant is measured by the optical density at 450 nm. In the negative control the red blood cells are incubated in the absence of product and show an OD of 0.100% hemolysis is obtained with 100 μg cetylpyridinium chloride per ml of suspension. The degree of hemolysis is evaluated with respect to the positive control for the different concentrations of the products tested.

Data set [2] concerns Neurospora crassa. Type of data set: cell-based. As for the experimental part: (§1) The compounds tested all form part of the polyurea class and were obtained in the laboratory by chemical route. Tests for the inhibition of the growth of bacteria and fungi were carried out in liquid tests. The specific activity of each molecule is expressed by the minimal inhibitory concentration on the growth of the bacteria and/or fungi, called MIC. The MIC is a value specific to each compound and varies as a function of the organisms tested. It should be noted that the MIC values follow a logarithmic progression, which is due to a two-by-two dilution of the compounds tested in a series of tests. The molecules tested were presented in the form of salts which are soluble in water and thus the culture medium of the microorganisms. The antifungal tests are carried out in similar fashion with ½ PDB (Potato dextrose broth, Difco) as culture medium and 10,000 spores per ml of culture. An optical control under a reverse microscope is necessary in the case of the fungi in order to evaluate the formation of the mycelia of the filamentous fungi (Aspergillus fumigatus, Neurospora crassa). The CMC is determined after culture for 48 hours at 29° C. and corresponds to the concentration where no formation of mycelium is observed.

Data set [3] deals with Aspergillus fumigatus. Type of data set: cell-based. Here is the method:
as §1

Data set [4] has as its system Staphylococcus aureus. Type of data set: cell-based. Conditions: 24 h. As for the experimental part: (§2) The compounds tested all form part of the polyurea class and were obtained in the laboratory by chemical route. Tests for the inhibition of the growth of bacteria and fungi were carried out in liquid tests. The specific activity of each molecule is expressed by the minimal inhibitory concentration on the growth of the bacteria and/or fungi, called MIC. The MIC is a value specific to each compound and varies as a function of the organisms tested. It should be noted that the MIC values follow a logarithmic progression, which is due to a two-by-two dilution of the compounds tested in a series of tests. The molecules tested were presented in the form of salts which are soluble in water and thus the culture medium of the microorganisms.
(§3) For carrying out the tests, 96-well plates were used. Each well contains 90 μl of a suspension of bacteria diluted in PB medium (Poor Broth, Difco) in order to have a final concentration of 1 mOD. 10 μl of compound in solution in sterile water at concentrations ranging from 1 mg/ml to 2 μg/ml are added to the tests. The plates are placed under stirring at 29° C. for 24 hours. The growth of the bacteria is measured by measuring the turbidity of the culture medium and measuring the OD at 595 nm. The value of the MIC corresponds to the concentration of the substances to be tested where no growth of bacteria is noted (OD=0).

Data set [5] deals with E. coli D363. Type of data set: cell-based. As for the experimental part:
as §2, §3

Data set [6] concerns Salmonella cloacae. Type of data set: cell-based. Here is the method:
as §2, §3

Data set [7] deals with Pseudomonas aeruginosa. Type of data set: cell-based. As for the experimental part:
as §2, §3

Data set [8] deals with Micrococcus luteus. Type of data set: cell-based. Here is the method: as §2, §3

Compound `CCCCCCCCCCCCCCCC[n+]1ccccc1` [cetylpyridinium chloride] had a hemolysis in data set [1] of 100%.

For “H-YLVFKAVY-NH2 [Peptide L (control), H-Tyr-Leu-Val-Phe-Lys-Ala-Val-Tyr-NH2]”, the Minimum inhibitory concentration was 20 µM in data set [2] (48 h); 30 µg/mL in data set [2] (Neurospora crassa, ½ PDB, 10,000 spores per ml, 48 hours at 29° C.); 82 µM in data set [3] (48 h); 121 µg/mL in data set [3] (Aspergillus fumigatus, ½ PDB, 10,000 spores per ml, 48 hours at 29° C.); over 121 µg/mL in data set [4]; 2.6 µM in data set [5] (D363, 24 h). Moreover, the Minimum inhibitory concentration in data set [5] (E. coli D363, PB medium, 24 hours at 29° C.) worked out at 3.8 µg/mL; in data set [6] (24 h) it was 2.6 µM; in data set [6] (Salmonella cloacae, PB medium, 24 hours at 29° C.), 3.8 µg/mL; in data set [7] (24 h) it was 82 µM; in data set [7] (Pseudomonas aeruginosa, PB medium, 24 hours at 29° C.), 121 µg/mL; in data set [8] (24 h), 2.6 µM. This compound also displayed a Minimum inhibitory concentration in data set [8] (Micrococcus luteus, PB medium, 24 hours at 29° C.) of 3.8 µg/mL.
